According to patent publication US8258119B2, “Anti-cancer drugs and uses relating thereto for metastatic malignant melanoma and other cancers” (Kasina Laila Innova Pharmaceuticals, priority 2008, dated 2012):
In brackets after ≈: the same amount, converted by molar mass.

Key:
[1] = system: A2058, human malignant melanoma cells; assay: MTT cell proliferation assay in A2058 cells; format: cell-based; conditions: A2058, 72 h, three days exposure
Experimental: (§1) MTT [3-(4,5-dimethylthiazol-2-yl)-2,5-diphenyltetrazolium bromide] incorporation based cell proliferation assay was performed using standard procedure with some modifications (38). The cytotoxic efficacy of the test compounds were evaluated in human malignant melanoma A2058 cells by MTT cell proliferation assay kit (Roche Applied Sciences, Germany). The assay was carried out according to the instruction provided by the vendor. Briefly, equal numbers of cells was plated in 96-well flat-bottomed plates in 100 μl of medium and were exposed to either DTIC or its derivative compounds at various concentrations up to 150 μg/ml for a period of three days. Vehicle control culture wells received only a maximum of 0.5% DMSO. Thereafter, 0.5 mg/ml of MTT reagent was added to each well and the microplate was incubated further for 4 h at 37° C. in presence of 5% CO2. Finally, the cells were solubilized by adding solubilizing solution and allowed to incubate at 37° C. overnight. After complete solubilization of the formazan crystals the absorbance was read at 540 nm in a microplate reader (BioRad, USA). The results (mean OD±SD) obtained from quadruplicate wells were used in calculation to determine the inhibition of cell proliferation (50% inhibitory concentration, IC50) of the test compounds.

[2] = system: normal human skin epithelial HS.531.sk cells; assay: LDH leakage assay on normal skin cells (tumor selectivity); format: cell-based; conditions: 120 μg/ml
Experimental: From the data obtained from the MTT assay (Table J), compound 1, compound 6 and compound 13 have been selected and their cytotoxicity potential has been further validated in LDH leakage assay. […] Cytotoxicity potential of DTIC and its derivative compounds were evaluated by measuring the leaked lactate dehydrogenase (LDH) into the culture supernatant (LDH Cytotoxicity Detection Roche Applied Sciences, Germany). The leaked LDH is directly proportional to the cell damage done by the cytotoxic compounds. In brief, cells were treated with test compounds at various concentrations and incubated for 48 h. Vehicle control culture wells received only a maximum of 0.5% DMSO. The cell free culture supernatants were mixed with catalyst and dye solution and allowed to incubate for 15 min at room temperature. Finally, the reaction was stopped and the optical density was measured at 492 nm in a microplate reader (BioRad, USA). The results (mean OD±SD) obtained from quadruplicate wells were used in calculation to determine the cytotoxicity potential (50% of inhibitory concentration, IC50) of the test compounds. A plot of loss of cell viability as indicated by the leakage of LDH versus drug concentration is depicted in FIG. 1.
Next, to check whether the DTIC derivative compounds can selectively kill the melanoma cells without or minimally affecting the normal cells, we assessed the effect of the test compounds on normal human skin epithelial HS.531.sk cells. […] Whereas, 120 μg/ml of DTIC, compound 1, […] caused 5.8%, 4.2%, 2.4%, and 2.4% reduction in normal cell viability, respectively.

[3] = system: MCF-7 human breast tumor cells; assay: MTT cell proliferation assay in MCF-7 cells; format: cell-based; conditions: MCF7, read-out: 50% of inhibitory concentration, IC50 MCF-7
Experimental: as §1
(§2) Anti-tumor growth potential of Compound 1 and Compound 6 were evaluated in MCF-7 human breast tumor cells, MIA-PaCa2 human pancreas tumor cells and DU145 human prostate tumor cells by using MTT based cell proliferation studies as described earlier (example 19). The results (mean OD±SD) obtained from quadruplicate wells were used in calculation to determine the inhibition of cell proliferation (50% of inhibitory concentration, IC50) of the test compounds (Table 4).

[4] = system: MIA-PaCa2 human pancreas tumor cells; assay: MTT cell proliferation assay in MIA-PaCa2 cells; format: cell-based; conditions: MIA PaCa-2, read-out: 50% of inhibitory concentration, IC50 MIA-PaCa2
Experimental: as §1, §2

[5] = system: DU145 human prostate tumor cells; assay: MTT cell proliferation assay in DU145 cells; format: cell-based; conditions: DU-145, read-out: 50% of inhibitory concentration, IC50 DU145
Experimental: as §1, §2

[6] = system: PARP cleavage in A2058 human melanoma cells; assay: PARP cleavage Western immunoblot assay; format: cell-based; conditions: 100 μg/ml, versus DTIC at the same concentration
Text: Proteolytic cleavage of PARP by caspases is regarded as a hallmark of apoptosis. Caspase-3 cleaves the 113-kDa PARP to generate 89- and 24-kDa polypeptides (39). Next, with an intention to evaluate the comparative apoptotic potential of DTIC and test products compound 1, compound 6 and compound 13, PARP cleavage assay has been performed on A2058 cells. PARP cleavage was estimated by using Western immunoblot assay as described earlier (40). FIG. 3 illustrates comparative efficacy of PARP cleavage by the test compounds at a fixed dose of 100 μg/ml. […] No. 3 treated A2058 cells is 56.6% more than in DTIC treated cells at the same concentration.

For `CN(C)/N=N/c1ccsc1C(=O)[O-].[K+]`, the melting point was 274 to 280 °C.

For `CN(C)/N=N/c1ccsc1C(N)=O` [Compound 1, 3-[(dimethylamino)diazenyl]thiophene-2-carboxamide], the IC50 [1] was 78.7 µg/mL (≈ 397 µM), the “reduction in normal cell viability” value [2] was 4.2% and the IC50 [3] was 130 µg/mL (≈ 657 µM). For the same molecule, the IC50 [4] was 168 µg/mL (≈ 850 µM), the IC50 [5] was 153 µg/mL (≈ 773 µM) and the melting point was 168 to 170 °C.

`CN(C)/N=N/c1c(Br)csc1C(N)=O` [Compound 2, 3-[(dimethylamino)diazenyl]-4-bromothiophene-2-carboxamide] gave an IC50 [1] of 113 µg/mL (≈ 409 µM) and a melting point of 194 to 196 °C.

With `CN(C)/N=N/c1cc([N+](=O)[O-])sc1C(N)=O` [Compound 3, 3-[(dimethylamino)diazenyl]-5-nitrothiophene-2-carboxamide] the “reduction in normal cell viability” value [2] was 2.4% and the “expression of cleaved subunit of PARP at 89 kDa, more than in DTIC treated cells” value [6] was 56.6%.

In the case of `COc1c(C(N)=O)sc(C(N)=O)c1/N=N/N(C)C` [Compound 4, 4-[(dimethylamino)diazenyl]-3-methoxythiophene-2,5-dicarboxamide], the “reduction in normal cell viability” value [2] is reported as 2.4% and the melting point is reported as 226 to 228 °C.

In the case of `CN(C)/N=N/c1cc(-c2ccccc2)sc1C(N)=O` [Compound 5, 3-[(dimethylamino)diazenyl]-5-phenylthiophene-2-carboxamide], the melting point is reported as 220 to 222 °C.

Molecule `CN(C)/N=N/c1cc([N+](=O)[O-])sc1C(=O)O` [Compound 7, 3-[(dimethylamino)diazenyl]-5-nitrothiophene-2-carboxylic acid] has a melting point of 184 to 186 °C.

With `CN(C)/N=N/c1cc(-c2ccccc2)sc1C(=O)O` [Compound 8, 3-[(dimethylamino)diazenyl]-5-phenylthiophene-2-carboxylic acid] the melting point was 162 to 166 °C.

`CN(C)/N=N/c1ccsc1C(=O)NCCO` [Compound 9, {3-[(dimethylamino)diazenyl] (2-thienyl)}-N-(2-hydroxyethyl)-carboxamide] showed an IC50 [1] of 214 µg/mL (≈ 884 µM) and a melting point of 118 to 122 °C.

Molecule `CNC(=O)c1sccc1/N=N/N(C)C` [Compound 10, {3-[(dimethylamino)diazenyl](2-thienyl)}-N-methylcarboxamide] has an IC50 [1] of 179 µg/mL (≈ 842 µM) and a melting point of 98 to 102 °C.

`CN(C)/N=N/c1ccsc1C(=O)NCCN` [Compound 11, N-(2-aminoethyl){3-[(dimethylamino)diazenyl](2-thienyl)}-carboxamide] gave an IC50 [1] of 164 µg/mL (≈ 681 µM).

For `CN(C)/N=N/c1csc(C(N)=O)c1` [Compound 12], the IC50 [1] was 165 µg/mL (≈ 832 µM) and the melting point was 128 to 130 °C.

Molecule `CN(C)/N=N/c1cscc1C(N)=O` [Compound 13, 4-[(dimethylamino)diazenyl]thiophene-3-carboxamide] has an IC50 [1] of 48.8 µg/mL (≈ 246 µM) and a melting point of 168 to 172 °C.

With `Cn1nnc2sc(N)cc2c1=O` [Compound 17, 6-amino-3-methylthiopheno[2,3-d]1,2,3-triazin-4-one] the IC50 [1] was 147 µg/mL (≈ 805 µM) and the melting point was 190 to 194 °C.

With `Cn1nnc2cc(-c3ccccc3)sc2c1=O` [Compound 18, 3-methyl-6-phenylthiopheno[3,2-d]1,2,3-triazin-4-one] the melting point was 220 to 222 °C.
